Test results reported in publication PMC11947619, “Molecular mechanism of Mad2 conformational conversion promoted by the Mad2‐interaction motif of Cdc20” (Protein Science : A Publication of the Protein Society, 2025).
Residues, ends and D or L forms follow the SMILES beside them.

Target: T1, O‐Mad2^R133A (Homo sapiens, UniProt Q13257, R133A)
T1 construct: unable to collect equivalent data for full‐length O‐Mad2^R133A; His6-DoubleStrep-TEV (N); made in house
Assay: Time-resolved NMR: O-Mad2 to C-Mad2 conversion of O-Mad2^R133A with MIM peptides
Format: biochemical
Conditions: 100 μM O-Mad2^R133A, 25°C
Protocol: FIGURE 2 NMR fingerprinting of Mad2. (a) Structural orientations of Trp75 (on the αB helix) and Trp167 (on the “safety‐belt”) in Mad2 produce distinct indole NH resonances. […] NMR spectra for O‐Mad2^R133A and “empty” C‐Mad2^L13A/R133A and C‐Mad2^R133A:Cdc20^MIM‐111‐138 are from Fischer et al. ([2022]) (c) Mad2 conversion rates vary with different MIM peptides. Conversion was traced over 24 h at 25°C using the Trp75 and Trp167 side‐chain resonances as reporters. MIM peptides were added at two‐fold molar excess to Mad2 (100 μM). Each spectrum required 12 min of acquisition time, therefore the 15 min time‐points represent the earliest spectra in the time‐resolved series. The schematics show the conformation of Mad2 as indicated by the tryptophan side‐chain resonances. A black tick marks when conversion is considered complete. NMR data for O‐Mad2^R133A with and without Cdc20^MIM‐111‐138 shown are from Fischer et al. ([2022]). In the case of full‐length Cdc20, the MIM sequence is sequestered by an auto‐inhibitory intramolecular interaction within Cdc20 itself, which prevents it from being readily accessible for binding to C‐Mad2 (Piano et al., [2021]). Conversely, isolated MIM peptides lack this auto‐inhibitory mechanism, allowing them to bind directly to C‐Mad2 without obstruction.
To understand whether Mad2 conversion times are modulated by different C‐Mad2 ligands, we used time‐resolved NMR to determine the conversion time of 100 μM O‐Mad2^R133A at 25°C. The indole NH resonances of Trp75 and Trp167 were used as reporters (Figure 2b). […] In contrast, conversion took ~24 h in the absence of Cdc20^MIM‐111‐138 peptide (Fischer et al., [2022]) (Figures 2c and S4b). […] Other MIM peptides also accelerated the O‐Mad2 to C‐Mad2 conversion. […] In “empty” C‐Mad2, the β7/β8 hairpin is displaced to expose the β6 strand for pairing with the MIM peptide (Luo et al., [2004]) (Figure S3a).
Mad2 constructs were expressed in BL21 Star (DE3) cells (Thermo Fisher Scientific), co‐transformed with a pRARE plasmid (Merck). Uniformly labeled proteins were expressed in M9 minimal media (6 g/L Na2HPO4, 3 g/L KH2PO4, 0.5 g/L NaCl) supplemented with 1.7 g/L yeast nitrogen base without NH4Cl and amino acids (Sigma Y1251). 1 g/L ^15NH4Cl and 4 g/L glucose were supplemented for ^15N labeling. For ^13C/^15N double‐labeled samples, unlabeled glucose was replaced with 3 g/L ^13C‐glucose. Protein expression was induced with 0.4 mM IPTG at 16°C overnight. All samples were purified as previously described (Luo & Yu, [2005]; Mapelli et al., [2007]) and all O‐Mad2 variants were kept at 4°C during purification to prevent conversion to C‐Mad2. Prior to all NMR experiments, proteins were dialyzed into 20 mM HEPES, pH 7.0, 100 mM NaCl, 1 mM TCEP. ^13C/^15N‐labeled samples were used for backbone assignment, and all other experimental data were acquired on ^15N‐labeled samples. Proteins were kept on ice before NMR experiments to ensure all O‐Mad2 remained in the open state. For “bound” C‐Mad2, MIM peptides were added in 1:2 molar excess to ensure complete conversion.
All peptides were synthesized by Cambridge Research Biochemicals, UK. Peptides were dialyzed into 20 mM HEPES, pH 7.0, 100 mM NaCl, and 1 mM TCEP for NMR experiments. The sequences for the peptides used in this study are: Cdc20^MIM‐111‐138 ([…]), Cdc20^MIM‐123‐137 (FDVEEAKILRLSGKP), Cdc20^MIM‐123‐152 ([…]), Cdc20^MIM‐138‐152 (QNAPEGYQNRLKVLY), Mad1^MIM‐529‐550 ([…]), and MBP1^MIM (SWYSYPPPQRAV). […]

T1 sequence (Q13257 whole entry R133A): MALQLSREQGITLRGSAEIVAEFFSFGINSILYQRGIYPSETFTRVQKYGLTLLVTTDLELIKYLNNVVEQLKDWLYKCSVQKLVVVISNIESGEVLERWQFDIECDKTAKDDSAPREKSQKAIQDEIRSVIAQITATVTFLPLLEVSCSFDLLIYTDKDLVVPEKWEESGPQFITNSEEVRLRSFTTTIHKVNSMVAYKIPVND

## CC[C@H](C)[C@H](NC(=O)[C@H](CCCCN)NC(=O)[C@H](C)NC(=O)[C@H](CCC(=O)O)NC(=O)[C@H](CCC(=O)O)NC(=O)[C@@H](NC(=O)[C@H](CC(=O)O)NC(=O)[C@@H](N)Cc1ccccc1)C(C)C)C(=O)N[C@@H](CC(C)C)C(=O)N[C@@H](CCCNC(=N)N)C(=O)N[C@@H](CC(C)C)C(=O)N[C@@H](CO)C(=O)NCC(=O)N[C@@H](CCCCN)C(=O)N1CCC[C@H]1C(=O)N[C@@H](CCC(N)=O)C(=O)N[C@@H](CC(N)=O)C(=O)N[C@@H](C)C(=O)N1CCC[C@H]1C(=O)N[C@@H](CCC(=O)O)C(=O)NCC(=O)N[C@@H](Cc1ccc(O)cc1)C(=O)N[C@@H](CCC(N)=O)C(=O)N[C@@H](CC(N)=O)C(=O)N[C@@H](CCCNC(=N)N)C(=O)N[C@@H](CC(C)C)C(=O)N[C@@H](CCCCN)C(=O)N[C@H](C(=O)N[C@@H](CC(C)C)C(=O)N[C@@H](Cc1ccc(O)cc1)C(=O)O)C(C)C [Cdc20^MIM‐123‐152] (H-FDVEEAKILRLSGKPQNAPEGYQNRLKVLY-OH; N-terminus and C-terminus assumed)
time-resolved NMR, compared with other Cdc20^MIM peptides
  Mad2 conversion rate/efficiency, in words: more efficient at triggering Mad2 conversion

## EHQKAWALNLNGFDVEEAKILRLSGKPQ [Cdc20^MIM‐111‐138, Cdc20^MIM peptide spanning Cdc20 residues 111–138]
two-fold molar excess peptide, without peptide ~24 h
  acceleration of O-Mad2 to C-Mad2 conversion vs absence of MIM peptide: ~50 fold

## QNAPEGYQNRLKVLY [Cdc20^MIM‐138‐152, peptide of Cdc20 residues 138–152]
time-resolved NMR, two hours
  induction of Mad2 conversion after two hours / binding, in words: failed to induce Mad2 conversion after two hours, and therefore alone are insufficient to bind Mad2
